Measured values reported in patent US12005139B2, “Ophthalmic formulations and related methods” (EternaTear, Inc., priority 2022, dated 2024).

Test system: cell layers
Experiment: USP (87) biological reactivity testing (cytotoxicity)
Assay type: cell-based
Design: key: “severe” reactivity meaning there was nearly complete destruction of all cell layers
Conditions: dilutions of 50 ppm BAK with EDTA in saline ophthalmic vehicle, down to 5% of use concentration
Procedure: Testing was conducted by a neutral third party laboratory to determine the cytotoxicity of benzalkonium chloride (BAK) when used as a preservative in a standard topical saline ophthalmic solution vehicle. Test solutions of BAK at various dilutions at the typical preservation concentration used in ophthalmic products (50 ppm) were subject to USP (87) biological reactivity testing and graded according to reactivity. All solutions contained EDTA as an adjunct to enable the BAK to be active against gram negative bacteria. All negative and positive controls were nominal.

## benzalkonium chloride [BAK]
  USP (87) biological reactivity grade: severe
